PMC8151276, “An Integrated Approach toward NanoBRET Tracers for Analysis of GPCR Ligand Engagement” (Molecules, 2021)

Molecular target: T1, ADRB2 (Homo sapiens, UniProt P07550)
T1 construct: purchased Promega (in-house HiBiT-GPCR construct library, NanoBRET)
Assay: NanoBRET screen HiBiT-ADRB2 in HEK293
Assay type: binding
Method: Each tracer candidate was screened across the entire library of HiBiT-GPCR constructs using NanoBRET as the detection modality. As depicted in Figure 4A, the specificity of interactions was evaluated through decrease in BRET due to competitive displacement of a bound tracer by excess parental compound. Each tracer was analyzed for binding to each HiBiT-GPCR fusion in the absence and in the presence of competing parental compound. Briefly, HEK293 cells were transfected with HiBiT-GPCR constructs diluted into promoterless DNA to reduce expression and maximize translocation to the cell surface. Each tracer candidate was then screened at concentrations of 1 μM and 0.1 μM across cells expressing these fusions. Cells were treated for 1.5 h with tracer either alone or in the presence of 20 μM competing parental compound (i.e., control). BRET was measured upon addition of purified LgBiT and subsequent complementation with HiBiT genetically fused to a GPCR. The specificity of interactions was assessed through a decrease in BRET signal due to competitive displacement of the bound tracer. To further gauge the robustness of these interactions, the fold response over the control (i.e., BRETtracer/BRETcontrol) was calculated. We chose a 1.5-fold response, which translates to ≥7-fold signal over noise as the minimal threshold required to score an interaction as positive.
HiBiT-GPCR DNA constructs were diluted in 10 mM Tris pH 8 to a final concentration of 0.01 μg/μL, arrayed in 96-well plates and stored at −20 °C. For transfection, HEK293 cells were suspended in Opti-MEM (without phenol red) supplemented with 2% fetal bovine serum (Seradigm) and 100 units/mL penicillin–streptomycin (Gibco) at a final concentration of 220,000 cells/mL and dispensed into white 96-well plates at 90 μL/well. Subsequent transfections and screens were carried using an Agilent Bravo Automated Liquid Handling Platform. First, the 96-well HiBiT DNA arrays were diluted 25-fold in Opti-MEM (without serum or phenol red) to a final concentration of 0.0004 μg/μL and 20 μL of the diluted DNAs were transferred into new 96-well plates. Next, promoterless carrier DNA (1 μg/μL) was diluted 25-fold (0.04 μg/μL) and then dispensed into the diluted arrays at 20 μL/well. Following brief mixing, Viafect transfection reagent (Promega) diluted 16-fold into Opti-MEM was dispensed into the plates at 40 μL/well. After mixing by pipetting, plates were incubated for 10 min on the pipetting station deck. The DNA-transfection reagent complexes were then added to plates containing cells. To facilitate the screen, 10 μL of DNA-transfection reagent complexes were added in duplicates to the top 4 and bottom 4 rows, resulting in two identical 48-well arrays per plate. Plates with transfected cells were incubated for 18–20 h at 37 °C/5% CO2. A screen of each tracer across the entire library using two different concentrations requires duplicate plates of transfected cells. Depending on the number of tracers being screened, transfections can be scaled up using the same ratios. The next day, for each tracer, four 20× screening solutions in tracer dilution buffer (Promega) were prepared: two duplicates at final concentration of 20 μM and two duplicates at a final concentration of 2 μM. […] The four resulting solutions were diluted 4-fold in Opti-MEM without serum or phenol red to generate 5× solutions (5 µM and 0.5 µM tracer +/− 100 μM competing compound). To screen the library, a BioTek MultiFlo FX liquid dispenser was used to dispense 22.5 µL of tracer solution to the top 4 rows and 22.5 µL tracer + competing compound solution to the 4 bottom rows. Plates were briefly mixed on an orbital shaker and incubated for 1.5 h at room temperature. […] Plates were briefly mixed on an orbital shaker and incubated for 15 min to allow complementation.

T1 sequence (P07550 whole entry): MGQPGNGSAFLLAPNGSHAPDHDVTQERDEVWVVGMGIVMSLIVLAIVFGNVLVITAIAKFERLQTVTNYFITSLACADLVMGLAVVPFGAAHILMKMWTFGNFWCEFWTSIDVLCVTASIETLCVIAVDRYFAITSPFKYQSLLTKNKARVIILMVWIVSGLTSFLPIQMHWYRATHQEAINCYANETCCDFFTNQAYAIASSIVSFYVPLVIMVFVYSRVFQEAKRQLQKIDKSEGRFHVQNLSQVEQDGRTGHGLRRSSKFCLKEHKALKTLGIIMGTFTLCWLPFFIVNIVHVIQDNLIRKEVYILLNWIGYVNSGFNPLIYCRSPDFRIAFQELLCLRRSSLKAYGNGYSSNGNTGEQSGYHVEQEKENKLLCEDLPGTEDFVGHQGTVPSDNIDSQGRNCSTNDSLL

Row | Compound | NanoBRET Fold Response (ADRB2, tracer 0.1μM) | NanoBRET Fold Response (ADRB2, tracer 1μM) | further results
1 | CCOC(=O)c1cc(C#N)c(N2CCC(C(=O)NS(=O)(=O)Cc3ccccc3/C=C/C(=O)NCCNC(=O)CCc3ccc4n3[B-](F)(F)[N+]3=C(c5ccc[nH]5)C=CC3=C4)CC2)nc1C [AZD1283-1-NB590] |  |  | NanoBRET Fold Response (ADRB2, 0.1μM): 1.01; NanoBRET Fold Response (ADRB2, 1μM): 1.06
2 | N#CN/C(=N\CCNC(=O)c1ccc(N)cc1)NCCCOc1cccc(CN2CCCCC2)c1 [Aminopotentidine (unmodified)] |  |  | NanoBRET Fold Response (ADRB2, other tracers/Aminopotentidine (unmodified), 0.1μM): 1.00; NanoBRET Fold Response (ADRB2, other tracers/Aminopotentidine (unmodified), 1μM): 1.04
3 | N#CN=C(NCCCOc1cccc(CN2CCCCC2)c1)NCCNC(=O)CCOCCOCCOCCOCCNC(=O)CCc1ccc2n1[B-](F)(F)[N+]1=C(c3ccc[nH]3)C=CC1=C2 [Aminopotentidine-2-NB590] | 1.05 | 1.02 | 
4 | CN(C)CCC=C1c2ccccc2CCc2ccc(C(=O)NCCNC(=O)CCOCCOCCOCCOCCNC(=O)CCc3ccc4n3[B-](F)(F)[N+]3=C(c5ccc[nH]5)C=CC3=C4)cc21 [Amitriptyline-a-2-NB590] |  |  | NanoBRET Fold Response (tracer at 0.1μM): 1.04; NanoBRET Fold Response (tracer at 1μM): 1.03
5 | CN(C)CCC=C1c2ccccc2CCc2ccc(C(=O)NCCNC(=O)CCOCCOCCOCCOCCNC(=O)CCc3ccc4n3[B-](F)(F)[N+]3=C(c5ccc[nH]5)C=CC3=C4)cc21 [Amitriptyline-b-2-NB590] |  |  | NanoBRET Fold Response (tracer at 0.1μM, listed as amitriptyline-b-2-NB590): 1.08; NanoBRET Fold Response (tracer at 1μM, listed as amitriptyline-b-2-NB590): 0.96
6 | CN(CCC=C1c2ccccc2CCc2ccccc21)C(=O)CCOCCOCCOCCOCCNC(=O)CCc1ccc2n1[B-](F)(F)[N+]1=C(c3ccc[nH]3)C=CC1=C2 [Amitriptyline-e-2-NB590] |  |  | NanoBRET Fold Response (tracer at 1μM): 1.04
7 | COc1ccc2c(n1)c(CCNC(C)=O)cn2CCNC(=O)CCc1ccc2n1[B-](F)(F)[N+]1=C(c3ccc[nH]3)C=CC1=C2 [Azamelatonin-1-NB590] |  |  | NanoBRET Fold Response (0.1μM tracer): 0.97; NanoBRET Fold Response (1μM tracer): 0.90
8 | COc1ccc2[nH]c(-c3ccc(CNC(=O)CCOCCOCCOCCOCCNC(=O)CCc4ccc5n4[B-](F)(F)[N+]4=C(c6ccc[nH]6)C=CC4=C5)cc3)c(CCNC(C)=O)c2n1 [AzomelatoninICO9-2-NB590] |  |  | NanoBRET Fold Response (0.1μM tracer): 0.94; NanoBRET Fold Response (1μM tracer): 0.99
9 | O=C(CCOCCOCCOCCOCCNC(=O)CCc1ccc2n1[B-](F)(F)[N+]1=C(c3ccc[nH]3)C=CC1=C2)NCCCN1CCN(C2=Nc3cc(Cl)ccc3Nc3ccccc32)CC1 [Clozapine-a-2-NB590] |  |  | NanoBRET Fold Response (ADRB2, 0.1μM tracer): 1.09; NanoBRET Fold Response (ADRB2, 1μM tracer): 1.10
10 | CN1CCN(C2=Nc3cc(Cl)ccc3Nc3ccc(CNC(=O)CCOCCOCCOCCOCCNC(=O)CCc4ccc5n4[B-](F)(F)[N+]4=C(c6ccc[nH]6)C=CC4=C5)cc32)CC1 [Clozapine-b-2-NB590] |  |  | NanoBRET Fold Response (ADRB2, 0.1μM tracer): 1.01; NanoBRET Fold Response (ADRB2, 1μM tracer): 0.93
11 | CN1CCN(C2=Nc3cc(Cl)ccc3N(CC(=O)NCCOCCOCCOCCOCCNC(=O)CCc3ccc4n3[B-](F)(F)[N+]3=C(c5ccc[nH]5)C=CC3=C4)c3ccccc32)CC1 [Clozapine-c-2-NB590] |  |  | NanoBRET Fold Response (ADRB2, 0.1μM tracer): 0.99; NanoBRET Fold Response (ADRB2, 1μM tracer): 1.02
12 | O=C(CCOCCOCCOCCOCCNC(=O)CCc1ccc2n1[B-](F)(F)[N+]1=C(c3ccc[nH]3)C=CC1=C2)NCCCN1CCN(C2=Nc3ccccc3Oc3ccc(Cl)cc32)CC1 [Loxapine-a-2-NB590] | 1.06 | 0.94 | 
13 | COc1ccccc1N1CCN(CCCCN2C(=O)c3ccc(CNC(=O)CCOCCOCCOCCOCCNC(=O)CCc4ccc5n4[B-](F)(F)[N+]4=C(c6ccc[nH]6)C=CC4=C5)cc3C2=O)CC1 [NAN-190-2-NB590] | 1.25 | 1.66 | 
14 | COc1ccccc1N1CCN(CCCCN2C(=O)c3ccc(CNC(=O)CCOCCNC(=O)c4ccc(CNC(=O)CCc5ccc6n5[B-](F)(F)[N+]5=C(c7ccc[nH]7)C=CC5=C6)cc4)cc3C2=O)CC1 [NAN-190-3-NB590] | 1.00 | 1.45 | 
15 | O=C(CCc1ccc2n1[B-](F)(F)[N+]1=C(c3ccc[nH]3)C=CC1=C2)NCc1ccc(C(=O)NCCOCCC(=O)N[C@@H]2CC[C@@]3(O)[C@H]4Cc5ccc(O)c6c5[C@@]3(CCN4CC3CC3)[C@H]2O6)cc1 [Naltrexone-3-NB590] | 1.36 | 0.89 | 
16 | Cc1cc2c(s1)Nc1ccccc1N=C2N1CCN(CCCNC(=O)CCOCCOCCOCCOCCNC(=O)CCc2ccc3n2[B-](F)(F)[N+]2=C(c4ccc[nH]4)C=CC2=C3)CC1 [Olanzapine-a-2-NB590] | 1.01 | 1.15 | 
17 | O=C(CCc1ccc2n1[B-](F)(F)[N+]1=C(c3ccc[nH]3)C=CC1=C2)NCCOCCOCCNC(=O)OCCOCCN1CCN(C2=Nc3ccccc3Sc3ccccc32)CC1 [Quetiapine-a-2-NB590] | 1.13 | 0.97 | 
18 | Cc1nc2n(c(=O)c1CCN1CCC(c3noc4cc(F)ccc34)CC1)CCCC2OC(=O)NCCOCCOCCOCCOCCNC(=O)CCc1ccc2n1[B-](F)(F)[N+]1=C(c3ccc[nH]3)C=CC1=C2 (centres unmarked) [Risperidone-2-NB590] | 0.97 | 0.98 | 
19 | CC(C)N(CC[C@H](c1ccccc1)c1cc(CCNC(=O)CCOCCOCCOCCOCCNC(=O)CCc2ccc3n2[B-](F)(F)[N+]2=C(c4ccc[nH]4)C=CC2=C3)ccc1O)C(C)C [Tolterodine-2-NB590] | 0.93 | 1.03 | 
20 | CC(C)N(CC[C@H](c1ccccc1)c1cc(CCNC(=O)c2ccc(CNC(=O)CCc3ccc4n3[B-](F)(F)[N+]3=C(c5ccc[nH]5)C=CC3=C4)cc2)ccc1O)C(C)C [Tolterodine-BZ-NB590] | 1.04 | 1.19 | 
21 | CCCn1c(=O)c2[nH]c(-c3ccc(OCC(=O)NCCNC(=O)CCOCCNC(=O)c4ccc(CNC(=O)CCc5ccc6n5[B-](F)(F)[N+]5=C(c7ccc[nH]7)C=CC5=C6)cc4)cc3)nc2n(CCC)c1=O [XAC-3-NB590] | 1.04 | 1.10 | 
